In patent US8759535B2, “Substituted fused imidazole derivatives, pharmaceutical compositions, and methods of use thereof” (High Point Pharmaceuticals, LLC, priority 2010, dated 2014) one finds fold induction data, which are given here for 21 compounds.

For the assay, the system named is HMOX1. Put plainly: HMOX1 Protein Assay (immunostaining of HO-1 in NHLF cells, GE InCell 1000). It is filed as cell-based. The conditions noted are these: Homo sapiens, fold change above DMSO treated cells, 16 h; for fold induction at 5 µM: 5 μM compound; for fold induction at 3 µM: 3 μM compound (asterisk). The procedure:
Cell Culture. Normal Human Fibroblast (NHLF), were obtained from Lonza. Cultures of cells were maintained in Fibroblast Growth Medium (FGM-2) medium supplemented with 2% fetal bovine serum (FBS), Fibroblast Growth Factor (hFGF-B) 0.5 mL, Insulin 0.5 mL, gentamicin/amphotericin-B 0.5 mL at 37° C. in a humidified atmosphere of 5% CO2. Cells were grown to 80% confluence before treating.
HMOX1 Protein Assay. NHLF cells were grown to 80% confluency and harvested by washing once with HEPES and then trypsinized. Equal numbers (2×10^3 cells per well) of NHLF cells were plated in 384 well optilux tissue culture (BD) plates. Cells were incubated overnight in FGM-2 medium prior to exposure to compound. Cells were treated with either vehicle (DMSO) or compound (dissolved in vehicle) for 16 h. Cells were washed 2× with 1×PBS and fixed with 4% Paraformaldyhyde for 15 min. The fixed cells were then permeabalized with 0.1% Triton X-100 and blocked with 5% BSA in 1×PBS 0.05% Tween-20 for 15 min. HO-1 antibody (abcam) was used for immunostaining at 1:300 dilution in 1% BSA in 1×PBS for 1 hour. Cells were washed 2× with 1×PBS and secondary antibody goat anti-mouse Alexa 488 1:400 dilution (Invitrogen); Hoechst 1:2000 (Invitrogen) in 1% BSA in 1×PBS for 1 hour. Plate was washed 5× with 1×PBS and read at Hoechst Ex.360 […]; Alexa 488 Ex.480 Em. 535 using GE InCell 1000. Results analyzed using GE InCell Analyzer software. Heme oxygenase data represents the fold change above DMSO treated cells.
In general, the fold induction data are reported for 5 μM concentration (i.e., μ-moles of compound to total volume, where the solvent is about 99.2% media and 0.8% DMSO). In some instances, the reported data are for 3 μM concentration, which are indicated by an asterisk (*).

Counter-ions that a name gives are not always drawn.

One may read the fold induction as the signal under treatment as a multiple of the control signal. Consider `CN(C)CC1CCN(C(=O)CNC(=O)c2ccc3c(c2)nc(Nc2nc4ccc(OC(F)(F)F)cc4s2)n3C)CC1` [Example 458, 1-Methyl-2-(6-trifluoromethoxy-benzothiazol-2-ylamino)-1H-benzoimidazole-5-carboxylic acid [2-(4-dimethylaminomethyl-piperidin-1-yl)-2-oxo-ethyl]-amide], for which the fold induction at 5 µM stood at 68.5. The same measure, in the same setting: then `COCCOCCNC(=O)c1ccc2c(c1)nc(Nc1nc3ccc(Cl)cc3s1)n2C` [Example 261, 2-(6-Chloro-benzothiazol-2-ylamino)-1-methyl-1H-benzoimidazole-5-carboxylic acid [2-(2-methoxy-ethoxy)-ethyl]-amide], with 35.7; and `CNC1CCN(C(=O)CNC(=O)c2ccc3c(c2)nc(Nc2nc4ccc(OC(F)(F)F)cc4s2)n3C)CC1` [Example 453, 1-Methyl-2-(6-trifluoromethoxy-benzothiazol-2-ylamino)-1H-benzoimidazole-5-carboxylic acid [2-(4-methylamino-piperidin-1-yl)-2-oxo-ethyl]-amide hydrochloride], with 81.1; and `Cn1c(Nc2nc3ccc(C(F)(F)F)cc3s2)nc2cc(C(=O)O)ccc21` [Example 24, 1-Methyl-2-(6-trifluoromethyl-benzothiazol-2-ylamino)-1H-benzoimidazole-5-carboxylic acid], with 20.7. The same measure, in the same setting: with `Cn1c(Nc2nc3ccc(OC(F)(F)F)cc3s2)nc2cc(C(=O)NCCNS(C)(=O)=O)ccc21` [Example 322, 1-Methyl-2-(6-trifluoromethoxy-benzothiazol-2-ylamino)-1H-benzoimidazole-5-carboxylic acid (2-methanesulfonylamino-ethyl)-amide] the figure was 36; with `COCCNC(=O)c1ccc2c(c1)nc(Nc1nc3ccc(C)cc3s1)n2C` [Example 129, 2-(6-Methyl-benzothiazol-2-ylamino)-1-methyl-1H-benzimidazole-5-carboxylic acid (2-methoxy-ethyl)-amide], 31; with `Cc1nc(-c2ccc3nc(Nc4nc5cc(OC(F)(F)F)ccc5s4)n(C)c3c2)n[nH]1` [Example 198, [1-Methyl-6-(5-methyl-1H-1,2,4-triazol-3-yl)-1H-benzimidazol-2-yl]-(5-trifluoromethoxy-benzothiazol-2-yl)-amine], 12. Same read-out and setting: with `CN(C)CC1CCN(C(=O)CNC(=O)c2ccc3c(c2)nc(Nc2nc4ccc(Cl)cc4s2)n3C)CC1` [Example 459, 2-(6-Chloro-benzothiazol-2-ylamino)-1-methyl-1H-benzoimidazole-5-carboxylic acid [2-(4-dimethylaminomethyl-piperidin-1-yl)-2-oxo-ethyl]-amide] the figure was 42. `Cn1c(Nc2nc3ccc(OC(F)(F)F)cc3s2)nc2cc(C(=O)NCCn3cccn3)ccc21` [Example 328, 1-Methyl-2-(6-trifluoromethoxy-benzothiazol-2-ylamino)-1H-benzoimidazole-5-carboxylic acid (2-pyrazol-1-yl-ethyl)-amide]: the fold induction at 5 µM stood at 29.4. Still for that read-out and setting: with `CCOCCNC(=O)c1ccc2c(c1)nc(Nc1nc3ccc(C(F)(F)F)cc3s1)n2C` [Example 85, 1-Methyl-2-(6-trifluoromethyl-benzothiazol-2-ylamino)-1H-benzoimidazole-5-carboxylic acid (2-ethoxy-ethyl)-amide] the figure was 11.6.

Compound `Cn1c(Nc2nc3ccc(Cl)cc3s2)nc2cc(C(=O)NCC(=O)N3CCN(S(C)(=O)=O)CC3)ccc21` [Example 429, 2-(6-Chloro-benzothiazol-2-ylamino)-1-methyl-1H-benzoimidazole-5-carboxylic acid [2-(4-methanesulfonyl-piperazin-1-yl)-2-oxo-ethyl]-amide] registered a fold induction at 5 µM of 21.4.

`CNC(=O)CNC(=O)c1ccc2c(c1)nc(Nc1nc3ccc(OC(F)(F)F)cc3s1)n2C` [Example 139, 1-Methyl-2-(6-trifluoromethoxy-benzothiazol-2-ylamino)-1H-benzimidazole-5-carboxylic acid methylcarbamoylmethyl-amide]: the fold induction at 5 µM worked out at 18.8. On the same count and under the same terms, then `COC(=O)[C@H](C)NC(=O)c1ccc2c(c1)nc(Nc1nc3ccc(OC(F)(F)F)cc3s1)n2C` [Example 143, (S)-2-{[1-Methyl-2-(6-trifluoromethoxy-benzothiazol-2-ylamino)-1H-benzoimidazole-5-carbonyl]-amino}-propionic acid methyl ester], with 22.4. Same read-out and setting: with `COc1ccc(CNC(=O)c2ccc3c(c2)nc(Nc2nc4ccc(OC(F)(F)F)cc4s2)n3C)cc1O` [Example 231, 1-Methyl-2-(6-trifluoromethoxy-benzothiazol-2-ylamino)-1H-benzoimidazole-5-carboxylic acid 3-hydroxy-4-methoxy-benzylamide] the figure was 30.2. `C[C@@H](NC(=O)c1ccc2c(c1)nc(Nc1nc3ccc(Cl)cc3s1)n2C)C(=O)N1CCOCC1` [Example 471, 2-(6-Chloro-benzothiazol-2-ylamino)-1-methyl-1H-benzoimidazole-5-carboxylic acid ((R)-1-methyl-2-morpholin-4-yl-2-oxo-ethyl)-amide]: the fold induction at 3 µM worked out at 17.4.

Regarding `Cn1c(Nc2nc3ccc(Cl)cc3s2)nc2cc(C(=O)NCCOCCN)ccc21` [Example 269, 2-(6-Chloro-benzothiazol-2-ylamino)-1-methyl-1H-benzoimidazole-5-carboxylic acid [2-(2-amino-ethoxy)-ethyl]-amide], the fold induction at 3 µM is 19.9. In turn, `CNCCOCCNC(=O)c1ccc2c(c1)nc(Nc1nc3ccc(Cl)cc3s1)n2C` [Example 272, 2-(6-Chloro-benzothiazol-2-ylamino)-1-methyl-1H-benzoimidazole-5-carboxylic acid [2-(2-methylamino-ethoxy)-ethyl]-amide hydrochloride] registered a fold induction at 5 µM of 86.5. On to `CCN(CC)CCCNC(=O)c1ccc2c(c1)nc(Nc1nc3ccc(Cl)cc3s1)n2C` [Example 352, 2-(6-Chloro-benzothiazol-2-ylamino)-1-methyl-1H-benzoimidazole-5-carboxylic acid (3-diethylamino-propyl)-amide], for which the fold induction at 3 µM worked out at 20.

In turn, `Cn1c(Nc2nc3ccc(Cl)cc3s2)nc2cc(C(=O)NCC(=O)N[C@@H]3CCCNC3)ccc21` [Example 387, 2-(6-Chloro-benzothiazol-2-ylamino)-1-methyl-1H-benzoimidazole-5-carboxylic acid ((R)-piperidin-3-ylcarbamoylmethyl)-amide hydrochloride] had a fold induction at 5 µM of 19.9.

The compound `CNCC1CCCN(C(=O)CNC(=O)c2ccc3c(c2)nc(Nc2nc4ccc(Cl)cc4s2)n3C)C1` (stereo not drawn) [Example 460, 2-(6-Chloro-benzothiazol-2-ylamino)-1-methyl-1H-benzoimidazole-5-carboxylic acid [2-(3-methylaminomethyl-piperidin-1-yl)-2-oxo-ethyl]-amid hydrochloride] came in with a fold induction at 5 µM of 27.5. Turning to `Cn1c(Nc2nc3ccc(OC(F)(F)F)cc3s2)nc2cc(C(=O)N[C@@H]3[C@@H](O)[C@H](O)[C@@H](CO)O[C@@H]3O)ccc21` [Example 283, 1-Methyl-2-(6-trifluoromethoxy-benzothiazol-2-ylamino)-1H-benzoimidazole-5-carboxylic acid ((2S,3R,4R,5S,6R)-2,4,5-trihydroxy-6-hydroxymethyl-tetrahydro-pyran-3-yl)-amide], the fold induction at 5 µM came to 30.2.
